What was measured:
Experiment in all cases: relative viability (nuclei count vs DMSO), 5 days (fraction); higher = more cells survive
A549 = system: A549
How it was run: (§1)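 Each reported value is a median over duplicate plates. It expresses relative viability: treated-well nuclei count divided by vehicle-well nuclei count. Lung cancer cell lines in 1536-well plates were dosed by pin tool a day after seeding, alone with one drug or with a fixed anchor-drug dose plus five library-drug doses (not always all listed) in √10 steps, and nuclei were counted after 5 days.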

ABC-1 = system: ABC-1
How it was run: as §1

Calu-6 = system: Calu-6
How it was run: as §1

EBC-1 = system: EBC-1
How it was run: as §1

EMC-BAC-2 = system: EMC-BAC-2
How it was run: as §1

IA-LM = system: IA-LM
How it was run: as §1

NCI-H1299 = system: NCI-H1299
How it was run: as §1

NCI-H1703 = system: NCI-H1703
How it was run: as §1

NCI-H2009 = system: NCI-H2009
How it was run: as §1

NCI-H2228 = system: NCI-H2228
How it was run: as §1

SMILES: CCNC(=O)c1noc(-c2cc(C(C)C)c(O)cc2O)c1-c1ccc(CN2CCOCC2)cc1 [Luminespib] + Cc1nc(NC(=O)N2CCC[C@H]2C(N)=O)sc1-c1ccnc(C(C)(C)C(F)(F)F)c1 [Alpelisib] (partner 2 µM)
- relative viability (A549; first compound 0.002 µM): 0.804
- relative viability (A549; first compound 0.006325 µM): 0.71
- relative viability (A549; first compound 0.02 µM): 0.255
- relative viability (A549; first compound 0.06325 µM): 0.0392
- relative viability (A549; first compound 0.2 µM): 0.036
- relative viability (ABC-1; first compound 0.002 µM): 0.976
- relative viability (ABC-1; first compound 0.006325 µM): 0.95
- relative viability (ABC-1; first compound 0.02 µM): 1.15
- relative viability (ABC-1; first compound 0.06325 µM): 0.392
- relative viability (ABC-1; first compound 0.2 µM): 0.3
- relative viability (Calu-6; first compound 0.002 µM): 0.975
- relative viability (Calu-6; first compound 0.006325 µM): 0.949
- relative viability (Calu-6; first compound 0.02 µM): 0.783
- relative viability (Calu-6; first compound 0.06325 µM): 0.131
- relative viability (Calu-6; first compound 0.2 µM): 0.12
- relative viability (EBC-1; first compound 0.002 µM): 0.825
- relative viability (EBC-1; first compound 0.006325 µM): 0.741
- relative viability (EBC-1; first compound 0.02 µM): 0.228
- relative viability (EBC-1; first compound 0.06325 µM): 0.146
- relative viability (EBC-1; first compound 0.2 µM): 0.131
- relative viability (EMC-BAC-2; first compound 0.002 µM): 0.746
- relative viability (EMC-BAC-2; first compound 0.006325 µM): 0.707
- relative viability (EMC-BAC-2; first compound 0.02 µM): 0.61
- relative viability (EMC-BAC-2; first compound 0.06325 µM): 0.771
- relative viability (EMC-BAC-2; first compound 0.2 µM): 0.762
- relative viability (IA-LM; first compound 0.002 µM): 0.752
- relative viability (IA-LM; first compound 0.006325 µM): 0.788
- relative viability (IA-LM; first compound 0.02 µM): 0.268
- relative viability (IA-LM; first compound 0.06325 µM): 0.0487
- relative viability (IA-LM; first compound 0.2 µM): 0.05
- relative viability (NCI-H1299; first compound 0.002 µM): 1
- relative viability (NCI-H1299; first compound 0.006325 µM): 1
- relative viability (NCI-H1299; first compound 0.02 µM): 1.15
- relative viability (NCI-H1299; first compound 0.06325 µM): 0.961
- relative viability (NCI-H1299; first compound 0.2 µM): 0.483
- relative viability (NCI-H1703; first compound 0.002 µM): 0.378
- relative viability (NCI-H1703; first compound 0.006325 µM): 0.367
- relative viability (NCI-H1703; first compound 0.02 µM): 0.186
- relative viability (NCI-H1703; first compound 0.06325 µM): 0.133
- relative viability (NCI-H1703; first compound 0.2 µM): 0.116
- relative viability (NCI-H2009; first compound 0.002 µM): 1.29
- relative viability (NCI-H2009; first compound 0.006325 µM): 1.02
- relative viability (NCI-H2009; first compound 0.02 µM): 1.28
- relative viability (NCI-H2009; first compound 0.06325 µM): 0.698
- relative viability (NCI-H2009; first compound 0.2 µM): 0.0841
- relative viability (NCI-H2228; first compound 0.002 µM): 0.808
- relative viability (NCI-H2228; first compound 0.006325 µM): 0.595
- relative viability (NCI-H2228; first compound 0.02 µM): 0.156
- relative viability (NCI-H2228; first compound 0.06325 µM): 0.142
- relative viability (NCI-H2228; first compound 0.2 µM): 0.136

SMILES: Cc1cn(-c2cc(NC(=O)c3ccc(C)c(Nc4nccc(-c5cccnc5)n4)c3)cc(C(F)(F)F)c2)cn1 [Nilotinib] + C[C@@H](Oc1cc(-c2cnn(C3CCNCC3)c2)cnc1N)c1c(Cl)ccc(F)c1Cl [Crizotinib] (partner 1 µM)
- relative viability (A549; first compound 0.001 µM): 0.916
- relative viability (A549; first compound 0.003162 µM): 0.976
- relative viability (A549; first compound 0.01 µM): 1.09
- relative viability (A549; first compound 0.03162 µM): 0.501
- relative viability (A549; first compound 0.1 µM): 0.547
- relative viability (ABC-1; first compound 0.001 µM): 1.16
- relative viability (ABC-1; first compound 0.003162 µM): 1.03
- relative viability (ABC-1; first compound 0.01 µM): 1.5
- relative viability (ABC-1; first compound 0.03162 µM): 0.913
- relative viability (ABC-1; first compound 0.1 µM): 1.34
- relative viability (Calu-6; first compound 0.001 µM): 0.677
- relative viability (Calu-6; first compound 0.003162 µM): 0.798
- relative viability (Calu-6; first compound 0.01 µM): 1.19
- relative viability (Calu-6; first compound 0.03162 µM): 0.548
- relative viability (Calu-6; first compound 0.1 µM): 0.637
- relative viability (EBC-1; first compound 0.001 µM): 0.216
- relative viability (EBC-1; first compound 0.003162 µM): 0.202
- relative viability (EBC-1; first compound 0.01 µM): 0.174
- relative viability (EBC-1; first compound 0.03162 µM): 0.157
- relative viability (EBC-1; first compound 0.1 µM): 0.164
- relative viability (EMC-BAC-2; first compound 0.001 µM): 0.676
- relative viability (EMC-BAC-2; first compound 0.003162 µM): 0.682
- relative viability (EMC-BAC-2; first compound 0.01 µM): 0.795
- relative viability (EMC-BAC-2; first compound 0.03162 µM): 0.673
- relative viability (EMC-BAC-2; first compound 0.1 µM): 0.753
- relative viability (IA-LM; first compound 0.003162 µM): 0.77
- relative viability (IA-LM; first compound 0.01 µM): 0.835
- relative viability (IA-LM; first compound 0.03162 µM): 0.637
- relative viability (IA-LM; first compound 0.1 µM): 0.659
- relative viability (NCI-H1299; first compound 0.001 µM): 0.925
- relative viability (NCI-H1299; first compound 0.003162 µM): 1.01
- relative viability (NCI-H1299; first compound 0.01 µM): 1.07
- relative viability (NCI-H1299; first compound 0.03162 µM): 0.918
- relative viability (NCI-H1299; first compound 0.1 µM): 0.969
- relative viability (NCI-H1703; first compound 0.003162 µM): 0.403
- relative viability (NCI-H1703; first compound 0.01 µM): 0.291
- relative viability (NCI-H1703; first compound 0.03162 µM): 0.191
- relative viability (NCI-H1703; first compound 0.1 µM): 0.175
- relative viability (NCI-H2228; first compound 0.001 µM): 0.53
- relative viability (NCI-H2228; first compound 0.003162 µM): 0.418
- relative viability (NCI-H2228; first compound 0.01 µM): 0.606
- relative viability (NCI-H2228; first compound 0.03162 µM): 0.461
- relative viability (NCI-H2228; first compound 0.1 µM): 0.294
